Values of other authors in patent US20220378710A1, “Therapeutic Gas Microfoam for Skin Recovery” (Truly Oxygen, Inc., priority 2018, published 2022).

Settings: topical co-administration of lipids, mammals

| SMILES | increase in absorption and/or bioavailability |
| --- | --- |
| C=C(C)[C@@H]1CCC(C)=C[C@H]1c1c(O)cc(CCCCC)cc1O [CBD, cannabidiol] | ~3 fold |
| CCCCCc1cc(O)c2c(c1)OC(C)(C)[C@@H]1CCC(C)=C[C@@H]21 [THC, Δ^9-tetrahydrocannabinol] | more than 2.5 fold |
